One experiment has as its system SIRT1 (pSer27, pSer47). Kind of experiment: Western blot of phospho-SIRT1 with IL1-β. The conditions noted are these: hMSCs and chondrocytes; in the presence of IL-1β; compared to DMSO. In kind it is cell-based, human. Here is the method: (§1) Cells were plated at 300,000 cells per well in a 6-well plate and following an overnight incubation, treated with DMSO (vehicle control) or indicated compounds and incubated at 37° C. and 5% CO2 for the indicated times. Following treatment, cells were trypsinized and pelleted by centrifugation and washed with PBS. Total protein from the cell pellet was extracted or for fractionation, protein was fractionated into cytoplasmic and nuclear fractions using a Nuclear and Cytoplasmic Extraction Reagents (NE-PER™) kit containing Halt™ protease and phosphatase inhibitors (Thermo Fisher). Protein concentrations were quantified using the Pierce Micro BCA protein assay kit (Thermo Fisher). […] Blots were blocked with non-fat dry milk. Primary antibodies were incubated overnight at 4° C. β-actin and Lamin B1 were used as loading controls (Supplementary Table S2 for primary antibodies). Mouse and rabbit horseradish peroxidase (HRP)-conjugated secondary antibodies were diluted in 5% blocking buffer in TBS-T. Protein-antibody complexes were detected by chemiluminescence using the SuperSignal West Femto Chemiluminescent Substrate (Thermo Fisher) and images were captured with a UVP ChemiDocIt2 camera system (Fisher Scientific, Hampton, N.H.).
In general terms: In western blotting, separated proteins are transferred to a membrane and probed.

The test system of experiment [1] is NF-κB pathway gene expression in THP1 cells. Nature of the experiment: qRT-PCR of NF-κB pathway components in THP1 cells stimulated with LPS. The class given is cell-based. As to the method:
Fold change relative to unstimulated control is shown (n=3, Mean±95% CI, *p<0.05, **p<0.01, ***p<0.001, one-way ANOVA).
Total RNA was isolated using a RNAeasy kit (Qiagen) as per the manufacturer's protocol. cDNA was synthesized using the iScript cDNA Synthesis Kit (Bio-Rad). Quantitative real-time PCR was performed using the CFX384 (Bio-Rad) using gene specific SYBR-green or TaqMan™ primers. Relative gene expression was determined by normalizing to housekeeping genes using the ΔΔCt method. Data was collected from at least 3 replicates per assay.
In general terms: Real-time PCR tracks product formation cycle by cycle.

Experiment [2] has as its system cartilage of ACLT+pMMx rats. Nature of the experiment: Surgery-induced OA model (ACLT+pMMx), cartilage analysis. In kind it is in vivo, rat. The conditions noted are these: cartilage at day 35. As to the method: Male Sprague Dawley (SD) rats (250 g±30 g) (Charles River, Wilmington, Mass.) were used for all animal studies. All animals were treatment naïve at the start of the studies. Procedures were performed during the hours of 8 am-5 pm on weekdays in a sterile hood in the vivarium. Rats were housed in individual ventilated cages (≤3 per cage) under the following conditions:
For Nanostring analysis and qPCR: At 10 weeks postnatal age, 32 rats were subjected to severing of the anterior cruciate, medial collateral and medial meniscotibial ligaments (ACLT+pMMx). 8 rats (male, 10 weeks old) were untreated controls (Sham). Each rat was anesthetized with an isoflurane/O2 mixture until the flexor withdrawal reflex was abolished. The surgeon wore a face mask, hair net, lab coat and shoe covers, and gloves that were disinfected with betadine or chlorhexidine. Surgery tools were sterilized with an autoclave or bead sterilizer and disinfected between animals using a bead sterilizer. After being shaved and disinfected with betadine or chlorhexidine solution, the right knee joint was exposed through a medial para-patellar approach. The medical collateral ligament (MCL) was transected with surgical scalpels. The patella was dislocated laterally, and the knee was placed in full flexion followed by anterior cruciate ligament (ACL) transection with surgical scalpels. The medial meniscus (MM) was also partially transected. After surgery, the joint surface was washed with sterile saline solution, and the capsule was sutured using Vicryl 4-0 (Ethicon, Edinburgh, UK) absorbable suture. The skin was closed with 9 mm auto clips (Mikron precision INC, Gardena Calif.). Buprenorphine (0.5 mg/kg) was administered immediately after the surgery and daily for one-week post-surgery. All the surgery, rats were allowed to move freely in plastic cages until their necropsies. […] At the indicated timepoints, animals were sacrificed using Carbon dioxide (CO2). Cartilage was isolated, flash frozen in liquid Nitrogen and stored at −80° C. until processing for RNA extraction.
At the indicated timepoints, animals were sacrificed using Carbon dioxide (CO2). Cartilage was isolated, flash frozen in liquid Nitrogen and stored at −80° C. until processing for protein extraction.

Another experiment deals with THP1 cells. Nature of the experiment: Western blot of phospho- and total proteins in THP1 cells stimulated with LPS. In kind it is cell-based. As to the method: as §1
[3] abbreviates: single IA injection 0.1 μg, 0.3 μg, 1 μg one-week post ACLT+pMMx, compared with vehicle.

Regarding `CC(C)CC(=O)Nc1cncc(-c2ccc3[nH]nc(-c4nc5c(-c6cccc(F)c6)cncc5[nH]4)c3c2)c1` [compound 123], the “phosphorylation of SIRT1 (pSer27, pSer47)” value with SIRT1 (pSer27, pSer47) is “dose-dependently and more potently inhibited”. Moreover, in experiment [1], the “LPS-stimulated gene expression of NF-κB components (RELA, RELB)” value is reported as “inhibited”; the “NF-κB inhibitors (NFKBIA, NFKBIB, IKKβ, IKKγ) expression” value is recorded as “without effects”; the “expression of NF-κB pathway genes (NFKB1, NFKB2, RELA, RELB and BCL3)” value is on record as “inhibited”. In experiment [2] (ACLT+pMMx rats, Nanostring), the “number of Wnt pathway genes with decreased expression” value is on record as 19 genes and the “number of Wnt pathway genes with increased expression” value is given as “at least 8 genes”. In experiment [2] (setting [3]), the “CLK2, DYRK1A, SRSF1, SRSF5, and SRSF6 expression” value was “decreased”; the “phospho-SRSF, SRSF1, AXIN2, TCF7, phospho-SIRT1, phospho-FOXO1, and phospho-STAT3 (Western blot)” value is reported as “decreased”. In addition, in the experiment on THP1 cells (4 hrs, compared to DMSO), the “AKT, JNK1, cJUN, p38/MAPK and TLR4” value was “not inhibited”; the “phospho-STAT3 (S727, Y705), phospho- and total NF-κB (p105/p50), and phospho-FOXO1/3a” value is reported as “dose-dependently decreased”. Moreover, in the experiment on THP1 cells (20 hrs), the “AKT, cJUN, p38/MAPK, and TLR4” value was “remained unchanged”; the “NF-κB, STAT3, JNK1 and FOXO1/3a phosphorylation” value is reported as “robustly inhibited”. The “phospho- or total NF-κB (p105/p50)” value in the experiment on THP1 cells (THP1 cells + LPS, 10 mins, 30 mins, 1 hr or 2 hrs) is recorded as “no effects”. In the experiment on THP1 cells (THP1 cells + LPS, 1 hr, 2 hrs, 4 hrs and 20 hrs), the “phospho-STAT3 (Y705)” value is “inhibited”. In addition, in the experiment on THP1 cells (THP1 cells + LPS, 4 hrs and 20 hrs), the “phospho- and total NF-κB” value is on record as “decreased”. Also, the “total STAT3” value in the experiment with THP1 cells (THP1 cells + LPS, any timepoint) is “no effects”.

The values above are taken from patent US20230000842A1, “METHODS OF TREATING CARTILAGE DISORDERS THROUGH INHIBITION OF CLK AND DYRK” (SAMUMED, LLC, priority 2019, published 2023).
